Measured values: patent publication US5153318A, “3'-Azido nucleoside compound” (Burroughs Wellcome Co., priority 1989, dated 1992)

Tests used:
HIV-1 (strain 3B) = assay: Anti-HIV-1 activity, reversal of cytopathic effect in MT4 cells (propidium iodide dye uptake); type: cell-based; details: Human immunodeficiency virus 1, MT4, 120 h, 100XTCID50, five days, protection of 50% of the cells from cell killing
Description: i) Anti-HIV activity was determined by measuring the ability of the compound to reverse the cytopathic effect of HIV infection. This was determined by a quantitative assessment of cell growth monitored at the fifth day post infection by a propidium iodide dye uptake test. MT4 cells were incubated with 100XTCID50 of HIV-1 (strain 3B) or HIV-2 (Zagury strain) for one hour prior to addition of compound in six different concentrations varying from 2 to 200 μM. The cells were allowed to incubate for five days at 37° C. On day five, NP-40, a detergent, was added to a final concentration of 0.5% immediately prior to analysis. Cell number was determined using a method which measures the fluorescence of a dye (propidium iodide) which binds to DNA. Since the amount of DNA is directly proportional to cell number, this fluorescence assay is an indication of cell growth. While uninfected cells double in cell number several times during the five days duration of the assay. HIV-infected cells grow very little, if at all.

human hepatitis B virus = assay: Anti-HBV activity in human HBV producer cell line of HepG2, 2.2.15; type: cell-based; details: HepG2 2.2.15 cells, ten days; criterion at least 100-fold reduction of Dane particles and similar decrease of intracellular replicative intermediates
Description: ii) The human HBV producer cell line of HepG2, 2.2.15, described and characterized by Sells et al., PNAS 84:1005, 1987 and J. Virol. […] This cell line was utilized in vitro to identify compounds with anti-HBV activity.
To test compounds for antiviral activity, monolayer cultures were treated with compound. […], for ten days. Supernatant media containing extracellular virion DNA (Dane particles) were harvested on days three, six and ten, treated with proteinase K (1 mg/mL) and sodium dodecyl sulfate (1%), and incubated at 50° C. for one hour. DNA was extracted with equal volumes of phenol followed by chloroform and then precipitated by ammonium acetate and propanol. […] After precipitation by ammonium acetate and propanol, the intracellular DNA precipitate was dissolved, cut by restriction endonuclease, Hind III, applied to agarose gel and then treated as described by Southern to determine the quantity of replicative intermediate forms. The antiviral effect of the drug was determined by measuring at least a 100-fold reduction of the amount of Dane particles extruded into the culture medium and a similar decrease in the intracellular replicative intermediates.

Compound	IC50 (HIV-1 (strain 3B)) [µM]	inhibition of human hepatitis B virus (human hepatitis B virus)
[N-]=[N+]=N[C@H]1C[C@H](n2cnc3c(OCc4ccccc4)nc(N)nc32)O[C@@H]1CO [Example 6b, 2-Amino-9-(3-azido-2,3-dideoxy-β-D-erythro-pentofuranosyl)-6-benzyloxy-9H-purine]	8.9	–
CN(C)c1nc(N)nc2c1ncn2[C@H]1C[C@H](N=[N+]=[N-])[C@@H](CO)O1 [Example 7b, 2-Amino-9-(3-azido-2,3-dideoxy-β-D-erythro-pentofuranosyl)-6-dimethylamino-9H-purine]	–	strong inhibition
